From PMC8624523, “Novel GPR120 Agonists with Improved Pharmacokinetic Profiles for the Treatment of Type 2 Diabetes” (Molecules, 2021)
Read-outs that look alike come from different tables or passages of the source.

Assays:
human GPR120 = biological target: T1, human GPR120 (Homo sapiens, UniProt Q5NUL3); assay: Ca2+ influx assay in CHO cells stably expressing human GPR120; assay type: cell-based; settings: CHO cells expressing human GPR120, Ca2+ signal, mean of three determinations
T1 construct: expressed in transfected cells
T1 sequence (Q5NUL3 1-361): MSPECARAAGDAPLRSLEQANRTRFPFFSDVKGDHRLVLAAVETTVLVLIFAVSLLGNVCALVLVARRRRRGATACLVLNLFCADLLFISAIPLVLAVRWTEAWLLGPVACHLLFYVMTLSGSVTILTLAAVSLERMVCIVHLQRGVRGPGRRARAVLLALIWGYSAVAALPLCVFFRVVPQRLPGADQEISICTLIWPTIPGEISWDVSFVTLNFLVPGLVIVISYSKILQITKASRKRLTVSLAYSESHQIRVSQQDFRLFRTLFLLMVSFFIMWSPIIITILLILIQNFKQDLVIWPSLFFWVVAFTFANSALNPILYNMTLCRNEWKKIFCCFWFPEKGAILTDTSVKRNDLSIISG
Description: Chinese hamster ovary (CHO) cells stably expressing human GPR120 were suspended in growth media at a concentration of 1 × 10^6 per mL. […] The cell plate was removed from the incubator, the medium was gently discarded, and the wells were washed with 100 μL of Hank’s balanced salt solution (HBSS) per well. The cells were then incubated in HBSS containing fluorescent calcium indicator Fluo-4 AM (2.5 μg/mL) and probenecid (2.5 mmol/L) for 90 min. […] The test compounds at various concentrations were added to the cells, and intracellular Ca^2+ concentrations were measured using FlexStation3 Molecular Devices. The GPR120 agonistic activities of the test compounds were expressed as A/B (increase in the intracellular Ca^2+ concentration (A) in the test compound-treated cells and (B) in vehicle-treated cells). The EC50 value of each compound was calculated using Prism software (version 5.0; GraphPad Software, San Diego, CA, USA).

hGPR40 [1] = biological target: T2, hGPR40 (Homo sapiens, UniProt O14842); assay: Calcium influx assay on hGPR40-expressing CHO cells; assay type: cell-based; settings: for Selectivity: GPR40 EC50 over GPR120 EC50; for EC50: hGPR40-expressing CHO cells, calcium influx, mean of three determinations, read-out: GPR40 (EC50)
T2 construct: expressed in transfected cells; host or cells: CHO cells

hGPR120 = tested on: hGPR120; design: method as in PMID 22519963, PMID 29100735, PMID 28642104, PMID 28947942, PMID 28374589; settings: Figure 1, literature values; cited from earlier work
hGPR40 [2] = biological target: T2, hGPR40; design: method as in PMID 22519963, PMID 29100735, PMID 28642104, PMID 28947942, PMID 28374589; settings: cited from earlier work
[3] = Pharmacokinetic analysis in C57BL/6 mice after gavage administration; assay type: in vivo; settings: male, mouse, plasma, po, 10 mg/kg gavage, 0.5% MC; for AUC / Cmax / half-life: mean ± SEM of four mice
Description: Plasma was collected with a pipette and the proteins in the plasma were precipitated with two volumes of acetonitrile containing an internal standard. This was followed by centrifugation at 15.680 g for 10 min after vortexing for 5 min. The supernatant was diluted with acetonitrile and 10 μL of supernatant was analyzed by Waters LC-PDA-MS/MS to determine plasma drug levels. Pharmacokinetic parameters were determined using the mean data from four mice at each time point. Statistical analysis of the data was performed using the DAS 2.1.1 statistical software program (BioVoice, Shanghai, China).

normal ICR mice = assay: Oral glucose tolerance test in normal ICR mice; assay type: in vivo; settings: fasted ICR mice
Description: Male ICR starved overnight (12 h) were weighed and randomly divided into six groups (eight mice per group). […] Blood samples were collected via the tail tip before drug administration (-30 min), before glucose loading (time 0), and 15, 30, 60, and 120 min after glucose loading. Blood glucose levels were measured using blood glucose test strips (Sannuo GA-3 type, Changsha, China).

DIO mice = assay: Anti-hyperglycemic effects (oGTT) in diet-induced obese (DIO) mice; assay type: in vivo, C57BL/6 mice; settings: fasted DIO mice, 20 mg/kg gavage 30 min before oral glucose 2 g/kg
Text: After 1 week of adaptation, male C57BL/6 mice weighing 18–22 g, were fed a high-fat diet (45% calories from fat, from Mediscience Ltd., Yangzhou, China) ad libitum for an additional 8 weeks to induce insulin resistance. […] Blood samples were collected and measured in accordance with the oral glucose tolerance test in normal ICR mice.

T2 sequence (O14842 whole entry): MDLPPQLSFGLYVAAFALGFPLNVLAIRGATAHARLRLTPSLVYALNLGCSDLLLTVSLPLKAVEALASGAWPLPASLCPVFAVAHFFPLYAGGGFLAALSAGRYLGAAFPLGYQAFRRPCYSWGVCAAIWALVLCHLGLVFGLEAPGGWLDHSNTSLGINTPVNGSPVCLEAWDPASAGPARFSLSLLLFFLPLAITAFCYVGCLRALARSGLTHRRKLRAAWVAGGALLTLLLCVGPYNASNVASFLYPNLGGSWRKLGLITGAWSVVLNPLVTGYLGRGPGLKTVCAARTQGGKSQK

Structure (SMILES): Cc1ccc(-c2ccc(F)cc2COc2ccc(CC(C)C(=O)O)cc2)cc1 (stereo not drawn) [Compound 1f, 3-(4-((4-Fluoro-4′-methyl-[1,1′-biphenyl]-2-yl)methoxy)phenyl)-2-methylpropanoic acid]
- melting point: 103 to 104 °C
- EC50 (human GPR120): 146 nM

Structure (SMILES): Cc1ccc(-c2ccc(F)cc2COc2ccc(C(C)CC(=O)O)cc2)cc1 (stereo not drawn) [Compound 2f, 3-(4-((4-Fluoro-4′-methyl-[1,1′-biphenyl]-2-yl)methoxy)phenyl)butanoic acid]
- melting point: 100 to 101 °C
- Selectivity (hGPR40 [1]): 1373
- EC50 (hGPR40 [1]): 72500 nM
- EC50 (human GPR120): 52.8 nM

Structure (SMILES): O=C(O)CCc1cc(F)c(OCc2c(-c3ccc(Cl)cc3F)nsc2C(F)(F)F)c(F)c1 [Compound 3]
- EC50 (hGPR120): 42 nM
- EC50 (hGPR40 [2]; Figure 1, literature value): > 5000 nM

Structure (SMILES): Cc1ccc(-c2ccc(F)cc2COc2ccc(CCC(=O)O)c(C)c2)cc1 [Compound 3f, 3-(4-((4-Fluoro-4′-methyl-[1,1′-biphenyl]-2-yl)methoxy)-2-methylphenyl)propanoic acid]
- melting point: 116 to 117 °C
- EC50 (human GPR120): 90.2 nM

Structure (SMILES): Cc1ccc(-n2nc(C)c3cnc(-c4ccc([C@H]5C[C@@H]5C(=O)O)cc4)cc32)nc1 [Compound 4]
- EC50 (hGPR120): 740 nM
- EC50 (hGPR40 [2]; Figure 1, literature values): > 100000 nM

Structure (SMILES): Cc1ccc(-c2ccc(F)cc2COc2ccc(CCC(=O)O)c(F)c2)cc1 [Compound 4f, 3-(2-Fluoro-4-((4-fluoro-4′-methyl-[1,1′-biphenyl]-2-yl)methoxy)phenyl)propanoic acid]
- melting point: 101 to 102 °C
- EC50 (human GPR120): 110 nM

Structure (SMILES): CO[C@H]1C[C@H](Oc2cc(F)c(F)c(-c3c(F)cc(OCCCC(=O)O)cc3F)c2)C1 [Compound 5]
- EC50 (hGPR120): 93 nM
- EC50 (hGPR40 [2]; Figure 1, literature values): > 100000 nM

Structure (SMILES): Cc1ccc(-c2ccc(F)cc2COc2ccc(OCC(=O)O)cc2)cc1 [Compound 5f, 2-(4-((4-Fluoro-4′-methyl-[1,1′-biphenyl]-2-yl)methoxy)phenoxy)acetic acid]
- melting point: 119 to 120 °C
- EC50 (human GPR120): 103 nM

Structure (SMILES): O=S1(=O)c2ccccc2CN1c1cc(F)cc(Oc2ccccn2)c1 [Compound 6]
- EC50 (hGPR120): 123 nM
- hGPR40 activity (hGPR40 [2]; at 100 uM, Figure 1, literature value): inactive

Structure (SMILES): Cc1ccc(-c2ccc(F)cc2COc2ccc(OCC(=O)O)c(C)c2)cc1 [Compound 6f, 2-(4-((4-Fluoro-4′-methyl-[1,1′-biphenyl]-2-yl)methoxy)-2-methylphenoxy)acetic acid]
- melting point: 115 to 116 °C
- Selectivity (hGPR40 [1]): 810
- EC50 (hGPR40 [1]): 58900 nM
- EC50 (human GPR120): 72.7 nM

Structure (SMILES): Cc1ccc(-c2ccc(F)cc2COc2ccc(OCC(=O)O)c(F)c2)cc1 [Compound 7f, 2-(2-Fluoro-4-((4-fluoro-4′-methyl-[1,1′-biphenyl]-2-yl)methoxy)phenoxy)acetic acid]
- melting point: 109 to 110 °C
- EC50 (human GPR120): 106 nM

Structure (SMILES): CC(CC(=O)O)c1ccc(OCC(=O)N2CCCc3ccccc32)cc1 (stereo not drawn) [Compound 11a, 3-(4-(2-(3,4-Dihydroquinolin-1(2H)-yl)-2-oxoethoxy)phenyl)butanoic acid]
- melting point: 117 to 118 °C
- EC50 (human GPR120): 113 nM

Structure (SMILES): Cc1ccc2c(c1)CCCN2C(=O)COc1ccc(C(C)CC(=O)O)cc1 (stereo not drawn) [Compound 11b, 3-(4-(2-(6-Methyl-3,4-dihydroquinolin-1(2H)-yl)-2-oxoethoxy)phenyl)butanoic acid]
- Tmax [3]: 0.5 h
- AUC [3]: 9050 ± 435 ng·h/mL
- Cmax [3]: 2530 ± 115 ng/mL
- half-life [3]: 1.78 ± 0.42 h
- melting point: 115 to 116 °C
- anti-hyperglycemic effects compared with TUG-891 (normal ICR mice; 30 mg/kg, at 30 min after the oral glucose challenge): better than TUG-891
- hypoglycemia (normal ICR mice; dose of 100 mg/kg by gavage): no hypoglycemia was observed
- blood glucose during oGTT (normal ICR mice; gavage 20 mg/kg 30 min before oral glucose 3.0 g/kg): significantly reduced blood glucose
- blood glucose levels during oGTT (normal ICR mice; gavage 10, 20, 30 and 100 mg/kg 30 min before oral glucose 3.0 g/kg): lowered the blood glucose levels in a dose-dependent manner
- anti-diabetic effects (blood glucose during oGTT) (DIO mice): equivalent to TUG-891
- insulin levels at 30 min after oral administration of glucose (DIO mice): significantly increased insulin levels
- Selectivity (hGPR40 [1]): 1159
- EC50 (hGPR40 [1]): 82500 nM
- EC50 (human GPR120): 71.2 nM

Structure (SMILES): COc1ccc2c(c1)CCCN2C(=O)COc1ccc(C(C)CC(=O)O)cc1 (stereo not drawn) [Compound 11c, 3-(4-(2-(6-Methoxy-3,4-dihydroquinolin-1(2H)-yl)-2-oxoethoxy)phenyl)butanoic acid]
- melting point: 141 to 142 °C
- EC50 (human GPR120): 99.6 nM

Structure (SMILES): CC(CC(=O)O)c1ccc(OCC(=O)N2CCCc3cc(F)ccc32)cc1 (stereo not drawn) [Compound 11d, 3-(4-(2-(6-Fluoro-3,4-dihydroquinolin-1(2H)-yl)-2-oxoethoxy)phenyl)butanoic acid]
- melting point: 124 to 130 °C
- EC50 (human GPR120): 187 nM

Structure (SMILES): Cc1cc(OCC(=O)N2CCCc3ccccc32)ccc1OCC(=O)O [Compound 11e, 2-(4-(2-(3,4-Dihydroquinolin-1(2H)-yl)-2-oxoethoxy)-2-methylphenoxy)acetic acid]
- melting point: 138 to 139 °C
- EC50 (human GPR120): 255 nM

Structure (SMILES): Cc1cc(OCC(=O)N2CCCc3cc(F)ccc32)ccc1OCC(=O)O [Compound 11f, 2-(4-(2-(6-Fluoro-3,4-dihydroquinolin-1(2H)-yl)-2-oxoethoxy)-2-methylphenoxy)acetic acid]
- melting point: 152 to 153 °C
- EC50 (human GPR120): 204 nM

Structure (SMILES): Cc1ccc2c(c1)CCCN2C(=O)COc1ccc(OCC(=O)O)c(C)c1 [Compound 11g, 2-(2-Methyl-4-(2-(6-methyl-3,4-dihydroquinolin-1(2H)-yl)-2-oxoethoxy)phenoxy)acetic acid]
- Tmax [3]: 0.5 h
- AUC [3]: 6710 ± 467 ng·h/mL
- Cmax [3]: 1850 ± 102 ng/mL
- half-life [3]: 1.52 ± 0.37 h
- melting point: 147 to 148 °C
- Selectivity (hGPR40 [1]): 1036
- EC50 (hGPR40 [1]): 86400 nM
- EC50 (human GPR120): 83.4 nM

Structure (SMILES): COc1ccc2c(c1)CCCN2C(=O)COc1ccc(OCC(=O)O)c(C)c1 [Compound 11h, 2-(4-(2-(6-Methoxy-3,4-dihydroquinolin-1(2H)-yl)-2-oxoethoxy)-2-methylphenoxy)acetic acid]
- melting point: 141 to 142 °C
- EC50 (human GPR120): 146 nM
